A value given as a limit tells only on which side of the number the result lay.

For one assay, the target named is memapsin 2 (Homo sapiens, UniProt P56817). Kind of assay: Inhibition of memapsin 2 catalytic activity (Ki). It is filed as biochemical. The conditions noted are these: memapsin 2, pH 4, 37° C.; read-out: M2K. In outline: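 Run at 37 °C and pH 4: compound and enzyme pre-incubated 20 min before FS-2 fluorogenic substrate started hydrolysis,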
The target of a further assay is cathepsin D (Homo sapiens, UniProt P07339). The experiment in a line: Inhibition of cathepsin D catalytic activity (Ki). It is filed as biochemical. As to conditions: pH 4.0, 37° C., read-out: CDK. As for the experimental part:
A substrate peptide NH3-ELDLAVEFWHDR-CO2 (SEQ ID NO.:1) (used for inhibition assay of memapsin 2, memapsin 1, and cathepsin D) was dissolved at 2 mg/ml in DMSO and diluted 1:100 in 0.1 M sodium acetate, pH 4.0 just prior to assay. Inhibitor dissolved in DMSO was diluted into 0.1 M sodium acetate, pH 4.0 (1:100 dilution). A […] aliquot of the inhibitor solution in pH 4 buffer was combined with […] of 0.1 M sodium acetate containing 100-200 nM of memapsin 1, memapsin 2, or cathepsin D. Following a pre-incubation at 37° C., the proteolytic assay was initated by addition of […] of the substrate diluted into pH 4 buffer, and incubation continued at 37° C. Aliquots were removed at time intervals, and combined with an equal volume of MALDI-TOF matrix (α-hydroxycinnamic acid in acetone, 20 mg/ml) and immediately spotted in duplicate onto a stainless-steel MALDI sample plate. MALDI-TOF mass spectrometry was performed on a PE Biosystems Voyager DE instrument at the Molecular Biology Resource Center on campus. The instrument was operated at 25,000 accelerating volts in positive mode with a 150 ns delay. Ions with a mass-to-charge ratio (m/z) were detected in the range of 650-2000 atomic mass units. Data were analyzed by the Voyager Data Explorer module to obtain ion intensity data for mass species of substrates and corresponding products in a given mixture. Relative product formation was calculated as the ratio of signal intensity of the product to the sum of signal intensities of both product and the corresponding substrate. Relative product formed per unit time was obtained from non-linear regression analysis of the data representing the initial 15% formation of product using the model: 1−e^−kT, where k was the relative hydrolytic rate constant and T was time in seconds. Alternatively, relative hydrolytic rates were determined using a fluorogenic cleavage assay (Ermolieff, J. et al., Biochemistry, 39: 12450-12456 (2000)). Initial rates from either method were expressed relative to uninhibited controls and the inhibition constant Ki was determined by a non-linear fit to a tight-binding model of competitive inhibition (Bieth, J., Bayer-Symposium V: Proteinase Inhibitors, pp 463-469, Spinger-Varlag, Berlin (1994)). Results are shown in Table 1 above (M2K, CDK, and M1K columns represent, respectively, the K1 values obtained for memapsin 2, cathepsin D and memapsin 1).

Assay [1] concerns Aβ production in Chinese hamster ovary cells that over-express human APP695 with the London and Swedish mutations. Kind of assay: Cellular Aβ IC50 determination (Aβ40 sandwich ELISA). As to conditions: Cricetulus griseus, CHO, 24 h, read-out: Cell, Aβ40, CHO cells over-expressing human APP695 (London and Swedish mutations), 24 h.

Chain of memapsin 2 (P56817 46-501): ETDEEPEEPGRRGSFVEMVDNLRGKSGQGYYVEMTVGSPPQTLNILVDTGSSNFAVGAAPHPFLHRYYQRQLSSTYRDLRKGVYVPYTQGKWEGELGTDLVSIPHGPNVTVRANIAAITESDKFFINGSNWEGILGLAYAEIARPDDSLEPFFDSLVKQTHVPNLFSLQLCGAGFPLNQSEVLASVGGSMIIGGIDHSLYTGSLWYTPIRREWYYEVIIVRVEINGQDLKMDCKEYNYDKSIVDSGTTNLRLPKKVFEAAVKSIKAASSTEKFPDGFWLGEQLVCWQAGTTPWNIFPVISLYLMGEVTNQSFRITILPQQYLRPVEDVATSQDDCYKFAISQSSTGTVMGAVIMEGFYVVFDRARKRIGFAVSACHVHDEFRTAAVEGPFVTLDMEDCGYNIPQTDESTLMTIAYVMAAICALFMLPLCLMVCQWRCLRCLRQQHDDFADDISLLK
Chain of cathepsin D (P07339 65-412, species assumed): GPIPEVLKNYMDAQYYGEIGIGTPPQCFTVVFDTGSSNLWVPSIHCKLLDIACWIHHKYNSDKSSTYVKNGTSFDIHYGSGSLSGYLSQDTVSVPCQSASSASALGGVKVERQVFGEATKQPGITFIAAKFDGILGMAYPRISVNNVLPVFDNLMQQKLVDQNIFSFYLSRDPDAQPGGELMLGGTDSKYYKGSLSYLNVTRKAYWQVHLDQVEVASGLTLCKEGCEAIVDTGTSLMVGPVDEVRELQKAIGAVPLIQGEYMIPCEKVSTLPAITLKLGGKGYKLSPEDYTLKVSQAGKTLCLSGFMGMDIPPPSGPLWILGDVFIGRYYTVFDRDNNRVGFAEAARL

For the compound `CC(NC(=O)c1cc(C(=O)NC(Cc2ccccc2)C(O)CNCc2cccc(N(C)C)c2)cc(N(C)S(C)(=O)=O)c1)c1ccccc1` (stereo not drawn) [N1-(4-(3-(dimethylamino)benzylamino)-3-hydroxy-1-phenylbutan-2-yl)-5-(N-methylmethylsulfonamido)-N3-(1-phenylethyl)isophthalamide], the values for the Ki on memapsin 2 and at cathepsin D were under 300 nM and over 501 nM, respectively. In addition, the IC50 in assay [1] is under 1000 nM.

For `CC(C)Cc1cccc(CNCC(O)C(Cc2ccccc2)NC(=O)c2cc(C(=O)NC(C)c3ccccc3)cc(N(C)S(C)(=O)=O)c2)c1` (stereo not drawn) [N1-(3-hydroxy-4-(3-isobutylbenzylamino)-1-phenylbutan-2-yl)-5-(N-methylmethylsulfonamido)-N3-(1-phenylethyl)isophthalamide], the Ki on memapsin 2 and on cathepsin D was under 300 nM each time. Further, the IC50 in assay [1] is under 1000 nM.

In the case of `COc1cccc(CNCC(O)C(Cc2ccccc2)NC(=O)c2cc(C(=O)NC(C)c3ccccc3)cc(N(C)S(C)(=O)=O)c2)c1F` (stereo not drawn) [N1-(4-(2-fluoro-3-methoxybenzylamino)-3-hydroxy-1-phenylbutan-2-yl)-5-(N-methylmethylsulfonamido)-N3-(1-phenylethyl)isophthalamide], the Ki at memapsin 2 and at cathepsin D was under 300 nM throughout. Also, in assay [1], the IC50 was under 1000 nM.

For `CC(NC(=O)c1cc(C(=O)NC(Cc2ccccc2)C(O)CNCC2CCN(C(=O)OCc3ccccc3)CC2)cc(N(C)S(C)(=O)=O)c1)c1ccccc1` (stereo not drawn) [benzyl 4-((2-hydroxy-3-(3-(N-methylmethylsulfonamido)-5-(1-phenylethylcarbamoyl)benzamido)-4-phenylbutylamino)methyl)piperidine-1-carboxylate], the Ki at memapsin 2 and on cathepsin D was under 300 nM throughout. Moreover, in assay [1], the IC50 was 1000 to 5000 nM.

With `CC(NC(=O)c1cc(C(=O)NC(Cc2ccccc2)C(O)CNCC2CCNCC2)cc(N(C)S(C)(=O)=O)c1)c1ccccc1` (stereo not drawn) [N1-(3-hydroxy-1-phenyl-4-(piperidin-4-ylmethylamino)butan-2-yl)-5-(N-methylmethylsulfonamido)-N3-(1-phenylethyl)isophthalamide], the Ki on memapsin 2 and at cathepsin D was over 501 nM each time. Also, the IC50 in assay [1] was over 5000 nM.

Regarding `COc1ccccc1CCNCC(O)C(Cc1ccccc1)NC(=O)c1cc(C(=O)NC(C)c2ccccc2)cc(N(C)S(C)(=O)=O)c1` (stereo not drawn) [N1-(3-hydroxy-4-(2-methoxyphenethylamino)-1-phenylbutan-2-yl)-5-(N-methylmethylsulfonamido)-N3-(1-phenylethyl)isophthalamide], the Ki at memapsin 2 and on cathepsin D was under 300 nM in each case. In assay [1], the IC50 lay within 1000 to 5000 nM.

On to `CCc1cccc(CNCC(O)C(Cc2ccccc2)NC(=O)c2cccc(C(=O)N(C)Cc3nc(C)cs3)c2)c1` (stereo not drawn) [N1-(4-(3-ethylbenzylamino)-3-hydroxy-1-phenylbutan-2-yl)-N3-methyl-N3-((4-methylthiazol-2-yl)methyl)isophthalamide], for which the Ki at memapsin 2 and at cathepsin D was under 300 nM each time. The IC50 in assay [1] is under 1000 nM.

With `CCc1cncc(CNCC(O)C(Cc2ccccc2)NC(=O)c2cc(C(=O)NC(C)c3ccccc3)cc(N(C)S(C)(=O)=O)c2)c1` (stereo not drawn) [N1-(4-((5-ethylpyridin-3-yl)methylamino)-3-hydroxy-1-phenylbutan-2-yl)-5-(N-methylmethylsulfonamido)-N3-(1-phenylethyl)isophthalamide], the Ki on memapsin 2 and at cathepsin D was under 300 nM in each case. Also, the IC50 in assay [1] is under 1000 nM.

`CC(NC(=O)c1cc(C(=O)NC(Cc2ccccc2)C(O)CNCc2cccc(CN(C)C)c2)cc(N(C)S(C)(=O)=O)c1)c1ccccc1` (stereo not drawn) [N1-(4-(3-((dimethylamino)methyl)benzylamino)-3-hydroxy-1-phenylbutan-2-yl)-5-(N-methylmethylsulfonamido)-N3-(1-phenylethyl)isophthalamide]: the Ki is under 300 nM on memapsin 2 and over 501 nM at cathepsin D. The IC50 in assay [1] is under 1000 nM.

In the case of `Cc1csc(CN(C)C(=O)c2cccc(C(=O)NC(Cc3ccccc3)C(O)CNCc3cc(C)on3)c2)n1` (stereo not drawn) [N1-(3-hydroxy-4-((5-methylisoxazol-3-yl)methylamino)-1-phenylbutan-2-yl)-N3-methyl-N3-((4-methylthiazol-2-yl)methyl)isophthalamide], the Ki at memapsin 2 and on cathepsin D was 301 to 500 nM in each case. For the same compound, in assay [1], the IC50 was in the range of 1000 to 5000 nM.

For the compound `Cc1csc(CN(C)C(=O)c2cccc(C(=O)NC(Cc3ccccc3)C(O)CNCc3cccc(CF)c3)c2)n1` (stereo not drawn) [N1-(4-(3-(fluoromethyl)benzylamino)-3-hydroxy-1-phenylbutan-2-yl)-N3-methyl-N3-((4-methylthiazol-2-yl)methyl)isophthalamide], the Ki at memapsin 2 and at cathepsin D was under 300 nM throughout. The IC50 in assay [1] is under 1000 nM.

Take `COc1cccc(C(C)NCC(O)C(Cc2ccccc2)NC(=O)c2cc(C(=O)NC(C)c3cccc(OC)c3)cc(N(C)S(C)(=O)=O)c2)c1` (stereo not drawn) [N1-(3-hydroxy-4-(1-(3-methoxyphenyl)ethylamino)-1-phenylbutan-2-yl)-N3-(1-(3-methoxyphenyl)ethyl)-5-(N-methylmethylsulfonamido)isophthalamide]: the Ki on memapsin 2 and on cathepsin D was under 300 nM each time. For the same compound, the IC50 in assay [1] was under 1000 nM.

For `Cc1csc(CN(C)C(=O)c2cccc(C(=O)NC(Cc3ccccc3)C(O)CNCc3cccc(C(C)C)c3)c2)n1` (stereo not drawn) [N1-(3-hydroxy-4-(3-isopropylbenzylamino)-1-phenylbutan-2-yl)-N3-methyl-N3-((4-methylthiazol-2-yl)methyl)isophthalamide], the Ki on memapsin 2 and at cathepsin D was under 300 nM in each case. Besides, the IC50 in assay [1] is under 1000 nM.

For the compound `CC(NCC(O)C(Cc1ccccc1)NC(=O)c1cc(C(=O)NC(C)c2ccccc2)cc(N(C)S(C)(=O)=O)c1)c1cccnc1` (stereo not drawn) [N1-(3-hydroxy-1-phenyl-4-(1-(pyridin-3-yl)ethylamino)butan-2-yl)-5-(N-methylmethylsulfonamido)-N3-(1-phenylethyl)isophthalamide], the Ki on memapsin 2 and on cathepsin D was under 300 nM each time. Moreover, the IC50 in assay [1] was under 1000 nM.

`CC(NC(=O)c1cc(C(=O)NC(Cc2ccccc2)C(O)CNCCN2CCOCC2)cc(N(C)S(C)(=O)=O)c1)c1ccccc1` (stereo not drawn) [N1-(3-hydroxy-4-(2-morpholinoethylamino)-1-phenylbutan-2-yl)-5-(N-methylmethylsulfonamido)-N3-(1-phenylethyl)isophthalamide]: the Ki was 301 to 500 nM at memapsin 2 and over 501 nM at cathepsin D. The IC50 in assay [1] was in the range of 1000 to 5000 nM.

As to `CC(NC(=O)c1cc(C(=O)NC(Cc2ccccc2)C(O)CNCCN2CCCCC2)cc(N(C)S(C)(=O)=O)c1)c1ccccc1` (stereo not drawn) [N1-(3-hydroxy-1-phenyl-4-(2-(piperidin-1-yl)ethylamino)butan-2-yl)-5-(N-methylmethylsulfonamido)-N3-(1-phenylethyl)isophthalamide], the Ki on memapsin 2 and on cathepsin D was over 501 nM each time. Besides, the IC50 in assay [1] was over 5000 nM.

For `COc1cccc(CNCC(O)C(Cc2ccccc2)NC(=O)c2cc(C(=O)NC(C)c3ccccc3)c(C)cc2C)c1` (stereo not drawn) [N1-(3-hydroxy-4-(3-methoxybenzylamino)-1-phenylbutan-2-yl)-4,6-dimethyl-N3-(1-phenylethyl)isophthalamide], the Ki on memapsin 2 was 301 to 500 nM; at cathepsin D, under 300 nM. The IC50 in assay [1] was under 1000 nM.

Values taken from US7504420B2, “Compounds which inhibit beta-secretase activity and methods of use” (CoMentis, Inc., priority 2005, dated 2009).
